From the NIST ThermoML archive (doi:10.1016/j.fluid.2008.02.007) come the findings set out here.

Numbers after ± are expanded uncertainties.

For the series the following is noted: Crystal; visual observation.

For the compound `O=C(O)c1ccccc1[N+](=O)[O-]` [2-nitrobenzoic acid], the Normal melting temperature was found to be 147.7 ± 0.5 °C. With `O=C(O)c1ccc([N+](=O)[O-])cc1` [4-nitrobenzoic acid] the figure was 240 ± 0.5 °C.
